{"source": "patent US20240092863A1", "about": "“ANTIMICROBIAL TARGET” (priority 2020, published 2024)", "key": {"[1]": {"test_system": "S. aureus", "experiment": "S. aureus adhesion to HaCaT human keratinocyte cells (bacterial adhesion assay, CFU)", "type": "cell-based, Staphylococcus aureus", "settings": "200 nM peptide; FIG. 1B", "protocol": "HaCaT human keratinocyte cells were cultured in DMEM supplemented with 10% (v/v) foetal bovine serum. Cells were subcultured by trypsinisation. For bacterial adhesion assays, HaCaT cells (10,000 cells/well) were grown overnight in 96-well plates.\nFor infection assays, bacterial were cultured from a single agar plate colony overnight in 5 ml of the appropriate growth medium. Then cultures were harvested by centrifugation, washed with 10 ml PBS, re-suspended in growth medium and incubated to achieve an OD600 equivalent to 5×10^8 CFU/ml. Cultures were again harvested by centrifugation, washed twice with PBS and re-suspended in DMEM at an appropriate density."}, "[2]": {"test_system": "S. aureus", "settings": "reference [7]; cited from earlier work"}, "[3]": {"test_system": "S. aureus SH1000", "settings": "cited from earlier work"}, "[4]": {"test_system": "P. aeruginosa PA01", "experiment": "Stability to bacterial cultures (P. aeruginosa PA01), residual activity in infection assay on HaCaT", "type": "in vitro ADME, Pseudomonas aeruginosa", "settings": "4 hrs incubation with growing culture"}, "[5]": {"test_system": "chymotrypsin", "experiment": "Protease stability: chymotrypsin digestion, LC-MS", "type": "in vitro ADME", "settings": "100 ug/ml peptide, chymotrypsin 2 mg/ml, 25° C., 1 hour"}, "[6]": {"experiment": "Protease stability: chymotrypsin digestion, LC-MS", "type": "in vitro ADME", "settings": "100 ug/ml peptide, chymotrypsin 2 mg/ml, 25° C., 18 hours; read-out: peptide still undigested in chymotrypsin at 18 hours"}, "[7]": {"experiment": "Protease stability: trypsin digestion, LC-MS", "type": "in vitro ADME", "settings": "100 ug/ml peptide, trypsin 2 mg/ml, 37° C., 18 hours; read-out: peptide still undigested in trypsin at 18 hours"}, "[8]": {"test_system": "trypsin", "experiment": "Protease stability: trypsin digestion, LC-MS", "type": "in vitro ADME", "settings": "100 ug/ml peptide, trypsin 2 mg/ml, 37° C., 1 hour"}, "[9]": {"test_system": "S. aureus SH1000", "protocol": "Protease stability was assessed using trypsin, chymotrypsin and human serum. Peptides at 100 μg/ml were incubated in 100 mM ammonium bicarbonate+2 mM calcium chloride were digested using trypsin (2 mg/ml), chymotrypsin (2 mg/ml) or human serum (25% (v/v)) for 1 or 18 hours. Digestion was performed at 37° C. for trypsin and human serum, and 25° C. for chymotrypsin. Reaction was stopped with 2.5% formic acid for trypsin and chymotrypsin. Human serum proteins were precipitated with acetonitrile. Supernatants were analysed on LC-MS. Stability to bacterial proteases was also analysed in cultures of S. aureus SH100 and P. aeruginosa PA01. 20 nM peptides in Keratinocyte-Serum Free Medium (KFSM) were incubated with mid-log phase cultures of bacteria for 4 hours. Bacteria were then removed by centrifugation and the supernatants used in bacterial adhesion assays, as described below.\nHuman cells in 96-well plates were washed with 200 ul HBSS and incubated with 200 μl 5% (w/v) BSA for 1 hour at 37° C., washed twice with 200 μl HBSS prior to incubation for 1 hour at 37° C. with peptides diluted in DMEM, or DMEM alone for control well. After removal of peptide solutions, wells were infected for 1 hour at 37° C. with 50 μl bacteria suspended in DMEM at optimised multiplicities of infection (MOI). […]"}, "[10]": {"test_system": "S. aureus SH1000", "experiment": "Mouse in vivo skin infection model", "parameters": "species or system Staphylococcus aureus", "settings": "mice, 200 nM peptide mixed with S. aureus SH1000 in a bandage on depilated skin; FIG. 9", "protocol": "C57/Bl6 mice were shaved to produce a bare area of approximately 2×2 cm. Depilatory cream was applied to depilate this area. A bandage was applied that contained a saline solution containing 200 nM of mouse 800-CAP, its scrambled control or human 800ii, and S. aureus SH1000. After 5 days, the mice were sacrificed and the depilated skin processed to release bacteria. The infection was assessed as CFU, and normalised to untreated control mice (=100). The experiment was performed 3 times using groups of 3 mice for each condition. Data are shown as the means of each separate experiment. Significance of the difference from 100 was calculated using a one-sample t test."}}, "note": "Where a SMILES comes first, the peptide text is derived from it. Bridges are numbered along the chain shown (N, C = ends). Where no end group is shown, it is not given here. [ ]: non-standard residue; d: D form. S5 = C=CCCC[C@](C)(N)C(=O)O", "data": [{"compound": "1: synthetic peptide with helix-preserving Ala residues replacing Glu26/Arg29 (DAPQAETLKAIHYALN; Glu26/Arg29 mutant 800-Cap peptide) [compound 1]", "values": [{"measurement": "inhibitory activity against S. aureus adhesion to human keratinocyte line HaCaT", "setting": "[1]", "result": "no activity"}]}, {"compound": "6: synthetic peptide with helix-preserving Ala residues replacing Ile35/Leu39 (DEPQRETLKAAHYAAN; Ile35/Leu39 mutant 800-Cap peptide) [compound 6]", "values": [{"measurement": "inhibitory activity against S. aureus adhesion to human keratinocyte line HaCaT", "setting": "[1]", "result": "no activity"}]}, {"compound": "800: short peptide derived from the primary sequence of the tetraspanin CD9 large extracellular domain (EC2); previously published (EPQRETLKAIHYALN; 800 peptide sequence) [compound 800]", "values": [{"measurement": "functional activity, time and dose dependence", "setting": "[2]", "result": "functionally active in a time and dose-dependent manner"}, {"measurement": "reduction of adherence of Staphylococcus aureus binding to human keratinocyte cells", "setting": "[2]", "result": "can reduce the adherence"}, {"measurement": "activity against S. aureus adhesion to a wound model of human skin", "setting": "[3]; previously published (Ventress et al., 2016)", "result": "active"}, {"measurement": "bacterial burden in a 3D model of human skin", "setting": "[3]; reference [7]", "result": "effective in lowering bacterial burden"}]}, {"compound": "CC[C@H](C)[C@H](NC(=O)[C@H](C)NC(=O)[C@H](CCCCN)NC(=O)[C@H](CC(C)C)NC(=O)[C@]1(C)CCCC=CCCC[C@](C)(NC(=O)[C@H](CCC(=O)O)NC(=O)[C@@H](N)CC(=O)O)C(=O)N[C@@H](CCC(N)=O)C(=O)N[C@@H](CCCNC(=N)N)C(=O)N[C@@H](CCC(=O)O)C(=O)N1)C(=O)N[C@@H](Cc1c[nH]cn1)C(=O)N[C@@H](Cc1ccc(O)cc1)C(=O)N[C@@H](C)C(=O)N[C@@H](CC(C)C)C(=O)N[C@@H](CC(N)=O)C(=O)O", "note": "[800i] (H-DE[S5]QRE[S5]LKAIHYALN-OH; staple 3-7; N-terminus and C-terminus assumed)", "values": [{"measurement": "resistance of peptide activity to P. aeruginosa PA01 culture", "setting": "[4]", "result": "resistant"}]}, {"compound": "CC[C@H](C)[C@@H]1NC(=O)[C@@](C)(NC(=O)[C@H](CCCCN)NC(=O)[C@H](CC(C)C)NC(=O)[C@@H](NC(=O)[C@H](CCC(=O)O)NC(=O)[C@H](CCCNC(=N)N)NC(=O)[C@H](CCC(N)=O)NC(=O)[C@@H]2CCCN2C(=O)[C@H](CCC(=O)O)NC(=O)[C@@H](N)CC(=O)O)[C@@H](C)O)CCCC=CCCC[C@@](C)(C(=O)N[C@@H](CC(C)C)C(=O)N[C@@H](CC(N)=O)C(=O)O)NC(=O)[C@H](Cc2ccc(O)cc2)NC(=O)[C@H](Cc2c[nH]cn2)NC1=O", "note": "[800ii] (H-DEPQRETLK[S5]IHY[S5]LN-OH; staple 10-14; N-terminus and C-terminus assumed)", "values": [{"measurement": "digestion by chymotrypsin after 1 hour", "setting": "[5]", "result": "not digested at all"}, {"measurement": "remaining at 18 h, 100 µg/ml", "setting": "[6]", "result": 20, "unit": "%"}, {"measurement": "remaining at 18 h, 100 µg/ml", "setting": "[7]", "result": 50, "unit": "%"}, {"measurement": "digestion by trypsin after 1 hour", "setting": "[8]", "result": "not digested at all"}, {"measurement": "resistance of peptide activity to P. aeruginosa PA01 culture", "setting": "[4]", "result": "resistant"}]}, {"compound": "DEPQRETLKAIHYALN [800-Cap]", "values": [{"measurement": "peptide activity degraded by incubation with S. aureus SH1000 culture", "setting": "[9]", "result": "~50", "unit": "%"}, {"measurement": "digestion by chymotrypsin after 1 hour", "setting": "[5]", "result": "completely digested"}, {"measurement": "digestion by trypsin after 1 hour", "setting": "[8]", "result": "completely digested"}, {"measurement": "peptide activity degraded by incubation with P. aeruginosa PA01 culture", "setting": "[4]; residual activity on S. aureus SH1000 / HaCaT", "result": "~50", "unit": "%"}]}, {"compound": "SEQ ID NO: 17: shorter form of peptide 800-Cap (DEPQRETL; first short form of 800-Cap)", "values": [{"measurement": "inhibitory activity against S. aureus adhesion to human keratinocyte line HaCaT", "setting": "[1]", "result": "little or no inhibitory activity"}]}, {"compound": "SEQ ID NO: 18: shorter form of peptide 800-Cap (KAIHYALN; second short form of 800-Cap)", "values": [{"measurement": "inhibitory activity against S. aureus adhesion to human keratinocyte line HaCaT", "setting": "[1]", "result": "little or no inhibitory activity"}]}, {"compound": "mouse equivalent of 800-CAP: the mouse equivalent of 800-CAP; probably SEQ ID NO: 6 (DEPQRETLKAIHMALD; listed as Mus musculus)", "values": [{"measurement": "bacterial load in skin after 5 days", "setting": "[10]", "result": "significantly reduced"}]}, {"compound": "peptide 7: synthetic peptide with helix-preserving Ala residues replacing Pro27/Thr31 (DEAQREALKAIHYALN; Pro27/Thr31 mutant 800-Cap peptide)", "values": [{"measurement": "inhibitory activity against S. aureus adhesion to human keratinocyte line HaCaT", "setting": "[1]", "result": "retained full activity"}]}]}
